Test results as given in patent US11787781B2, “Inhibiting ataxia telangiectasia and RAD3-related protein (ATR)” (Celator Pharmaceuticals, Inc., priority 2016, dated 2023).

Experiments:
[1] = Loading of ATR inhibitors into TEA-SOS liposomes and liposome characterization; type: physicochemical; conditions: for Liposome size, (mean ± SD) nm: liposomes loaded with the ATR inhibitor; for Loading efficiency (%) / Drug/lipid ratio after loading: TEA-SOS liposomes; for Loading efficiency (%): Compound 1 at ratio before loading 379; for Drug/lipid ratio after loading: input ratio before loading (Compound 1: 379)
Procedure: Sodium sucrose octasulfate (equivalent weight 144.8) is a sodium salt of sucrose derivate in which all hydroxyl groups have formed sulfuric acid esters. Sixty gram of sucrose octasulfate (SOS) sodium salt were dissolved in 150 ml of di water, heated with shaking (swirling) of a 50° C. water bath. The solution was passed through a column packed with sulfonated polystyrene divinylbenzene copolymer cation exchange resin beads (Dowex 50Wx8-100-200 mesh, Dow Chemical Co.). […] The eluent was monitored using a conductivity detector. The SOS fraction was collected corresponding to conductivity peak and immediately titrated with neat triethylamine (TEA) solution to pH 6-6.5. The solution was analyzed for residual sodium by potentiometry using a sodium-sensitive electrode and for SOS concentration using a refractometer. The solution having residual sodium less than 0.25% was diluted with di water to final SOS concentration 1.1 M and then sterile-filtered using Millipore 0.22 μm Steri-Top filter.
Cholesterol (Chol) was purchased from Avanti Polar Lipids, Alabaster, Ala., USA, hydrogenated soy phosphocholine (HSPC) and methoxy-poly(ethylene glycol)-1,2-distearoyl-sn-glyceryl (PEG2000-DSG) were obtained from Lipoid GmbH, Ludwigshafen, Germany.
Chol, HSPC and PEG2000-DSG were co-dissolved in 100% ethanol (200-proof, Sigma cat #: 459828) at a molar ratio of 3:2:0.15 at 65° C. The solution of TEA-SOS (10 times the volume of added ethanol) was mixed with the lipid solution at 60-65° C. and stirred at this temperature until a homogeneous milky suspension of multilamellar vesicles was formed. This suspension was extruded 3 times through 5 stacked polycarbonate track-etched filters (Corning Nuclepore) with the pore size of 100 nm using argon pressure extruder (Lipex Biomembranes) at 60-65° C., and resulting unilamellar liposomes were quickly chilled in ice and then stored at 4-6° C. before use. Concentration of phospholipids was measured by phosphate assay and particle diameter was recorded on a Malvern Nanosizer.
Prior to drug loading, the TEA-SOS gradient was created by removing excess of un-trapped TEA-SOS using gel-chromatography (Sepharose CL-4B, Pharmacia). Osmolarity of liposomes was balanced using 50% dextrose solution. Final dextrose concentration was 15%.
ATR inhibitors were dissolved in 15% dextrose solutions in di water by titration with 1 M HCl and heating at 45° C. and then filtered with 0.2 micron NALGENE 13 mm Syringe Filters. Drug concentration in the solution was detected by HPLC. […]
The liposome-drug mixture was incubated with occasional agitation for 30 minutes at 65° C. The incubation mixture was quickly cooled down and incubated for 10 minutes at 0° C., then allowed to attain ambient temperature. Un-encapsulated drug was removed by gel chromatography on Sephadex G-25 (Amersham Pharmacia) eluted with HBS-6.5 buffer (5 mM 2-(4-(2-hydroxyethyl)-piperazino)-ethylsulfonic acid (HEPES), 144 mM NaCl, pH 6.5). Liposome fractions eluted in the void volume were combined, sterilized by 0.2 micron filtration, and stored at 4-6° C. before use. The liposomes were characterized by lipid concentration, drug concentration, and particle size (Table 2).

[2] = biological target: ATM(h) (Homo sapiens (Human), UniProt Q13315); experiment: ATM activity, […] KINASEPROFILER; type: biochemical; conditions: estimated IC50
Description: Estimated IC50 values are as follows (obtained using […] KINASEPROFILER): […]

[3] = system: NCI-H520 cells; experiment: Cell number over time, NCI-H520 cells; type: cell-based; conditions: 1 μM in combination with SN38 0.2 μM
[4] = system: U2OS cells; experiment: Cell death and growth assay, U2OS cells; type: cell-based
Procedure: U20S and all other cells were grown in (RPMI) supplemented with 10% fetal bovine serum (FBS) and antibiotics. Imaging and time-lapse compatible NucLight red cell lines were generated as recommend by Essen Bioscience Inc. using lentiviral particles, infection and puromycin selection protocols.
The results were compared back to a prediction of cell growth and death with the combination of the two compounds (FIG. 18A).
In all cases, relative cell proliferation is reduced with the combinations compared to the drugs alone (FIG. 21B-C).

[5] = system: SUM149 cells; experiment: Cell cycle stage profile, SUM149 cells; type: cell-based; conditions: 24 hours after addition of SN38 and ATR inhibitor
[6] = system: NCI-H596 cells; experiment: Cell number over time, NCI-H596 cells; type: cell-based; conditions: 1 μM in combination with SN38 0.2 μM
[7] = system: MS-751 cells; experiment: In vitro growth assay, MS-751 cells; type: cell-based; conditions: in combination with SN38
[8] = system: total and phospho-ATR (S428), phospho-CHK1 (S317 and S345) in DMS-114 cells; experiment: Western blot of total and phospho-ATR, phospho-CHK1 in DMS-114 cells; type: cell-based
Procedure: Whole cell protein lysates were generated after 1, 3, 6 and 24 hours using a 2% SDS containing cell lysis buffer and stored at −80° C. until all samples were collected and run together at the same time for the WesternBlot analysis. The following proteins and phosphoproteins of interest were detected by antibodies purchased from Cell Signaling Technology (see methods and materials part below): total and phospho-ATR (S428), phospho-CHK1 (S317 and S345), γH2AX, beta-actin.
All target and phospho-specific antibodies were purchased from Cell Signaling and/or Epitomics and were used at 1:1000 dilutions. A list of all antibodies is available in Table 6. Standard antibody based Western blot and immunohistochemistry protocols were used. Briefly, 2% SDS based cell lysis buffer was used to collect whole cell lysate for Western Blotting. Secondary antibodies and staining protocols were purchased and followed regarding LiCor Biosciences and/or BD Bioscience.
Cells were grown and treated in a 6 cm dish scale. To harvest cells, medium was removed and quickly replaced by ice cold PBS. PBS was then replaced with 250 μL of 2% SDS lysis buffer. After five minutes of incubation, the lysed cells were scraped off and loaded onto a cell lysate homogenizer microcentrifuge spin-column (QIAshredder, Qiagen, Cat.-Nr. 79656). The filtrate was then loaded onto a 0.2 μm centrifugal filter column (Nanosep MF 0.2_m, Pall, Cat.-Nr. ODM02C34). The lysates were then stored at −80° C.

[9] = biological target: ATR/ATRIP(h) (Homo sapiens (Human), UniProt Q13535); experiment: Eurofins ATR/ATRIP HTRF assay, p53 Ser15 phosphorylation; type: biochemical; parameters: key to Top / Bottom: % of DMSO positive control activity; conditions: ATP 10 μM; for Hill: four parameter logistic fit; for Bottom / Top: four parameter logistic fit of % control activity
Sequence of ATR/ATRIP(h) (Q13535 whole entry): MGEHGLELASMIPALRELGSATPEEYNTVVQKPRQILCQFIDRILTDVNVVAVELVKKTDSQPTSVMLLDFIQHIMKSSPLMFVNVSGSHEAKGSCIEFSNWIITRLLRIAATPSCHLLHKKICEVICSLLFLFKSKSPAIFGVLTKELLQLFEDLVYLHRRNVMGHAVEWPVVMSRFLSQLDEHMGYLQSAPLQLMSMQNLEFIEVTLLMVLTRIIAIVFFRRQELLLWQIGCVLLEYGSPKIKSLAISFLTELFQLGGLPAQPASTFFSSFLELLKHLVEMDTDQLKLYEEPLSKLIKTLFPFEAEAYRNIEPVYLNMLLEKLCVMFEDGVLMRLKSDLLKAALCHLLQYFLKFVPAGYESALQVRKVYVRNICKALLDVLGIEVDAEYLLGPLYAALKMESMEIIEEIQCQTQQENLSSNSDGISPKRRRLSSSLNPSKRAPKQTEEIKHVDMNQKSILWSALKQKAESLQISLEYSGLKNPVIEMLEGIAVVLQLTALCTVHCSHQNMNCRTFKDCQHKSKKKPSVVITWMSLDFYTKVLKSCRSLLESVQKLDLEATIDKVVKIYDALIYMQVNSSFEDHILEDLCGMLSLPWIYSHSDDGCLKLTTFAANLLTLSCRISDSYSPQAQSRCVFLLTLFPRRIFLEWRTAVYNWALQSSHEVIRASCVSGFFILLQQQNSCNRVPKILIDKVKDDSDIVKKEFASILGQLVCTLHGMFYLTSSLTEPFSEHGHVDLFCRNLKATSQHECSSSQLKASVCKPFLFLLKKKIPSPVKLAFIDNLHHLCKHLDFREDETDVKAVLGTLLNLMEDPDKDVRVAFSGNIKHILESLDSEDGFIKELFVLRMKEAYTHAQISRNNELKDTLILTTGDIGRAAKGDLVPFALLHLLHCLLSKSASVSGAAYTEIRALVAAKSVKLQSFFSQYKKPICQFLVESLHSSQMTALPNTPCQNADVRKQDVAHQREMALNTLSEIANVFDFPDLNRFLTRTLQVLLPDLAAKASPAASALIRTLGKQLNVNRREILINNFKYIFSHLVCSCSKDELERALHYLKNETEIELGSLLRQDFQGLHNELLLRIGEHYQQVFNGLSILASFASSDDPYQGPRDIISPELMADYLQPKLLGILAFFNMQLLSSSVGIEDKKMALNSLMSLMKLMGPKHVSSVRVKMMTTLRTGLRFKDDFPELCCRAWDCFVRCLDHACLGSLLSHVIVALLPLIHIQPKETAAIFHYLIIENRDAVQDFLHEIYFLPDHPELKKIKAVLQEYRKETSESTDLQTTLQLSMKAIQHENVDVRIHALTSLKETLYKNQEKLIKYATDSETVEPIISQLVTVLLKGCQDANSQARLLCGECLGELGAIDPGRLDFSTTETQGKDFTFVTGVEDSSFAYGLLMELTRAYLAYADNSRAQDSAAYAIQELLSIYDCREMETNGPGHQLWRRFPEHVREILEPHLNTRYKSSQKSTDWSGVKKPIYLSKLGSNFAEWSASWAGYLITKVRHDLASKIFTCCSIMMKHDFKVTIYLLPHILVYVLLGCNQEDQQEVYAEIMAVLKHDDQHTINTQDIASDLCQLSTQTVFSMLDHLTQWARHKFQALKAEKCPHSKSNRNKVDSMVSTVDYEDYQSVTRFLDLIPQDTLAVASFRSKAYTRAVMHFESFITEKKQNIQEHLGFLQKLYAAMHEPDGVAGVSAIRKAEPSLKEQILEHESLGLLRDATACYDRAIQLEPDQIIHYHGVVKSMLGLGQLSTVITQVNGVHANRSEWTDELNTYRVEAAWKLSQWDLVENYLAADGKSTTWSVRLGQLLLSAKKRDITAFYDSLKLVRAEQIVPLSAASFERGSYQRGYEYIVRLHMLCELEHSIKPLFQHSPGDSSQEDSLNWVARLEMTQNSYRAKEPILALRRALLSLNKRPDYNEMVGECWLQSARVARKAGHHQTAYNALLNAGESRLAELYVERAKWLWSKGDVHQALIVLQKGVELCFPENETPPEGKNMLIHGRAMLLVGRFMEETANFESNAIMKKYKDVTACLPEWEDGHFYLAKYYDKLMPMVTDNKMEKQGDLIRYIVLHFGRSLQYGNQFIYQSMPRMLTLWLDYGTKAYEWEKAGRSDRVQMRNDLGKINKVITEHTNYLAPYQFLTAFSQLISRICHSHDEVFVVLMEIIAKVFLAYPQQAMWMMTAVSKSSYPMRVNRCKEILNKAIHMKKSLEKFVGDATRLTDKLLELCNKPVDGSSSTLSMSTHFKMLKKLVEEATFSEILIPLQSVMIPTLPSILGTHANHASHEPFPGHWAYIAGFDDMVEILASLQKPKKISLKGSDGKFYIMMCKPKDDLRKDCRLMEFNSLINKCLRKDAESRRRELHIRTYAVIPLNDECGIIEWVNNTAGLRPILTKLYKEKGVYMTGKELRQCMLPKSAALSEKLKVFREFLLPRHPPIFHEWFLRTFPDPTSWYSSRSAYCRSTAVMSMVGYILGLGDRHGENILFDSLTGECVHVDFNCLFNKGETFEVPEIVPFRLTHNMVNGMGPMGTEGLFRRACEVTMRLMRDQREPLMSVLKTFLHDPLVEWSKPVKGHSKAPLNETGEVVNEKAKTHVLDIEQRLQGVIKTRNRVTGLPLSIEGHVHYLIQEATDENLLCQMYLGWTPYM
Sequence of ATR/ATRIP(h) (Q8WXE1 whole entry partner): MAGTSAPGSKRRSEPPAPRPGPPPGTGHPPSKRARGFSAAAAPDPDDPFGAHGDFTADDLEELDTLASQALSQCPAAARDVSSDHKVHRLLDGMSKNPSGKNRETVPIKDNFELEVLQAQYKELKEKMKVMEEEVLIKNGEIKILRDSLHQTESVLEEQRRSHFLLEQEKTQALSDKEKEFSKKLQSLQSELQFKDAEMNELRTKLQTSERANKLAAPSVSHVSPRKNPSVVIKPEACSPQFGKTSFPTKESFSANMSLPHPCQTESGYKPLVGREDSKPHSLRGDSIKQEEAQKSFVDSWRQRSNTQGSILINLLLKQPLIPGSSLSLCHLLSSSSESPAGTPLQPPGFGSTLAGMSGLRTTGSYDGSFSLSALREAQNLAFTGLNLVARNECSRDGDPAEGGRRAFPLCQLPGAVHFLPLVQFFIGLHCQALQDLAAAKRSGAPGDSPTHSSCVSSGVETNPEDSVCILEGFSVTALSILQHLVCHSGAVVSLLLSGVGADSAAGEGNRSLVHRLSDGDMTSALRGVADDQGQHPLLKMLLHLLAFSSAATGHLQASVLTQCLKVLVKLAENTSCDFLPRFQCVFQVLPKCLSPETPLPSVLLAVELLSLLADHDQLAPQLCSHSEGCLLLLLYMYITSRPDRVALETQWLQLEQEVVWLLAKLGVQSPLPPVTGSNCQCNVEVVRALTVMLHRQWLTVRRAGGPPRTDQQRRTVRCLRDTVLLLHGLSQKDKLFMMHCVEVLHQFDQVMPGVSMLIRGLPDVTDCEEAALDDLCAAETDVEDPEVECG
Procedure: An EC50 determination was conducted for the supplied set of compounds against the kinase ATR/ATRIP(h), using a linear enzyme concentration in the Eurofins ATR/ATRIP HTRF assay using GST tagged full length p53 as the substrate.
ATR/ATRIP phosphorylation of p53 on Ser15 was measured via formation of an energy transfer complex consisting of a Europium-labelled anti-phospho Ser15 p53 antibody and an anti-GST-d2 antibody. All data points were performed in duplicate with DMSO controls and EDTA blanks.
ATR/ATRIP(h) was pre-diluted in 25 mM HEPES pH 8.0, 0.01% Brij-35, 1% Glycerol, 5 mM DTT, 1 mg/mL BSA and assayed in 25 mM HEPES pH 8.0, 0.01% Brij-35, 1% Glycerol, 10 mM MnCl2 using 30 nM GST, cMyc p53-(hu,FL) as the substrate. The reaction was initiated with the addition of ATP to a final concentration of 10 μM.
The individual replicates were expressed in terms of the % of the DMSO positive control activity. The mean activity (% control) of each inhibitor concentration was plotted against the inhibitor concentration, and EC50 values were determined using […] PRISM.
The data expressed as % control activity were plotted against inhibitor concentration, and fitted to a four parameter logistic using […] PRISM. Graphs for each compound are shown alongside the data in the accompanying Excel report.

[10] = pKa; type: physicochemical; conditions: method not stated

Compound | Liposome size, (mean ± SD) nm [1] | IC50 [2] | cell numbers over time vs either agent in isolation [3] | cell numbers over time vs either agent in isolation ([4]; 1 μM in combination with SN38 0.2 μM) | cell death vs either compound alone ([4]; Compound A (1 μM) combined with Gemcitabine (0.04 μM)) | cell cycle stage profile vs controls [5] | cell numbers over time vs either agent in isolation [6] | cell number over time vs either compound alone [7] | phosphorylation signal of CHK1 (S317 and S345) induced by Gemcitabine ([8]; ATR inhibitor 1 μM added to Gemcitabine 16 nM) | total and phospho-ATR signal ([8]; ATR inhibitor 1 μM, alone or with Gemcitabine 16 nM, up to 24 hrs) | Loading efficiency (%) [1] | Drug/lipid ratio after loading [1] | EC50 [9] | Hill [9] | Bottom [9] | Top [9] | pKa [10] | loading efficacy ([1]; Compound 1: at drug to lipid ratio higher than 400 g/mol) | Drug/lipid ratio after loading (loadability) ([1]; drug/lipid ratio before loading 600-800) | phospho-CHK1 (S317 and S345) signaling ([8]; Gemcitabine 16 nM alone, over 24 hrs)
CNCc1ccc(-c2cc(-c3nc(-c4ccc(S(=O)(=O)C(C)C)cc4)cnc3N)on2)cc1 [Compound A] | 121 ± 26 nm | 42 nM | more effective at maintaining or reducing cell numbers over time | more effective at maintaining or reducing cell numbers over time | better at promoting cell death | larger percentage of cells are arrested in G2 phase | more effective at maintaining or reducing cell numbers over time | reduction in cell number over time | abrogates the phosphorylation signal of CHK1 | strongly reduced |  |  |  |  |  |  |  |  |  | 
CCN(CC)C1CCN(CCS(=O)(=O)c2ccc(-c3cnc(N)c(C(=O)Nc4ccccc4)n3)cc2)CC1 [Compound 6, 3-amino-6-(4-((2-(4-(diethylamino)piperidin-1 yl)ethyl)sulfonyl)phenyl)-N-phenylpyrazine-2-carboxamide] | 119 ± 28 nm | > 10000 nM |  |  |  |  |  |  |  |  | 74 ± 0.3% | 550 ± 64 | 471 nM | −0.768 | −2 | 101 | 9.81 |  |  | 
CC(CN(C)C)S(=O)(=O)c1ccc(-c2cnc(N)c(C(=O)Nc3ccccc3)n2)cc1 (stereo not shown) [Compound 1, 3-amino-6-(4-((1-(dimethylamino)propan-2-yl)sulfonyl)phenyl)-N-phenylpyrazine-2-carboxamide] | 122 ± 24 nm | 3860 nM |  |  |  |  |  |  |  |  | 98% | 369 | 49.6 nM | −0.772 | −1 | 95 | 7.04 | formed aggregates | Not loadable. Formed aggregates | 
Nc1ccn([C@@H]2O[C@H](CO)[C@@H](O)C2(F)F)c(=O)n1 [Gemcitabine] |  |  |  |  |  |  |  |  |  |  |  |  |  |  |  |  |  |  |  | significantly increased
CN1CCN(CCS(=O)(=O)c2ccc(-c3cnc(N)c(C(=O)Nc4ccccc4)n3)cc2)CC1 [Compound 3, 3-amino-6-(4-((2-(4-methylpiperazin-1-yl)ethyl)sulfonyl)phenyl)-N-phenylpyrazine-2-carboxamide] | 120 ± 27 nm | > 10000 nM |  |  |  |  |  |  |  |  | 97 ± 5% | 628 ± 6 | 196 nM | −0.776 | −3 | 98 | 7.73 |  |  | 
CCN(CC)CCS(=O)(=O)c1ccc(-c2cnc(N)c(C(=O)Nc3ccccc3)n2)cc1 [Compound 2, 3-amino-6-(4-((2-(diethylamino)ethyl)sulfonyl)phenyl)-N phenylpyrazine-2-carboxamide] | 130 ± 34 nm | 4820 nM |  |  |  |  |  |  |  |  | 100 ± 5% | 639 ± 22 | 140 nM | −0.911 | 1 | 94 | 7.46 |  |  | 
CN(C)CCNS(=O)(=O)c1ccc(-c2cnc(N)c(C(=O)Nc3ccccc3)n2)cc1 [Compound 4, 3-amino-6-(4-(((2-(dimethylamino)ethyl)-λ^2-azanyl)sulfonyl)phenyl)-N-phenylpyrazine-2-carboxamide] |  | 6870 nM |  |  |  |  |  |  |  |  |  |  | 353 nM |  |  |  | 8.36 |  |  | 
